Some test systems named below: 786-0; A498; ACHN; DU-145; EKVX; HCT-15; HL-60; Hs-578T; IGROV-1; MDA-MB-231; MDA-MB-435; MDA-N; MOLT-4; NCI-H226; PC-3; RPMI-8226; RXF 393; SF-268; SF-539; UO-31.
Assay in all cases: inhibition of tumour cell growth, NCI panel, 48 h

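All cell lines were grown in 96-well plates and treated with compound for 48 hours. The concentration for 50% growth inhibition is given as GI50.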 The source made the active and inactive calls. No stated cut-off is given here; in the data, active = GI50 up to about 1.1 µM and inactive = higher.

For `C/C(CC(O)(C(F)(F)F)C(F)(F)F)=N\NC(N)=S`, the GI50 with 786-0 is > 10 µM (inactive); in the assay with A498, > 10 µM (inactive); with ACHN, > 10 µM (inactive); with DU-145, > 10 µM (inactive); in the assay on EKVX, > 10 µM (inactive); in the assay on HCT-15, greater than 10 µM. Besides, the GI50 in the assay on HL-60, in the assay with Hs-578T, in the assay on IGROV-1, in the assay on MDA-MB-231, in the assay with MDA-MB-435 and with MDA-N was > 10 µM (inactive) in each case. Also, the GI50 in the assay with MOLT-4, with NCI-H226, in the assay on PC-3, in the assay with RPMI-8226, with RXF 393 and in the assay with SF-268 was > 10 µM (inactive) each time. Further, the GI50 in the assay with SF-539 and in the assay on UO-31 was > 10 µM (inactive) throughout.
Consider `O=C1C[C@@H](c2ccccc2)NCCCCN(O)CCCN1`, for which the GI50 in the assay on 786-0 is > 100 µM (inactive); in the assay with A498, > 100 µM (inactive); in the assay with ACHN, > 100 µM (inactive); in the assay on DU-145 it was > 100 µM (inactive); in the assay on EKVX, > 100 µM (inactive); with HCT-15, greater than 100 µM. The GI50 in the assay with HL-60, in the assay with Hs-578T, with IGROV-1, with MDA-MB-231, in the assay with MDA-MB-435 and in the assay on MDA-N was > 100 µM (inactive) in each case. The GI50 is > 100 µM (inactive) in the assay on MOLT-4; > 100 µM (inactive) with NCI-H226; > 100 µM (inactive) with PC-3; 22.3 µM (inactive) with RPMI-8226; > 100 µM (inactive) in the assay on RXF 393; > 100 µM (inactive) in the assay on SF-268. Further, the GI50 in the assay with SF-539 and with UO-31 was > 100 µM (inactive) throughout.
For `CCOC(=O)c1cc(C2(O)CCN(Cc3ccccc3)C2=O)c(-c2cc(C)no2)[nH]1` (centres undefined), the GI50 in the assay on 786-0 is 60.3 µM (inactive); in the assay on A498, > 100 µM (inactive); in the assay with ACHN it was 45.5 µM (inactive); in the assay with DU-145, 88.9 µM (inactive); in the assay with EKVX it was 41.4 µM (inactive); in the assay with HCT-15, 71.3 µM. Moreover, the GI50 was 15.3 µM (inactive) in the assay with HL-60; 34 µM (inactive) in the assay with Hs-578T; 46.7 µM (inactive) in the assay on IGROV-1; 29 µM (inactive) in the assay on MDA-MB-231; 36.7 µM (inactive) in the assay with MDA-MB-435; 57.3 µM (inactive) with MDA-N. Also, the GI50 in the assay on MOLT-4 is 12.6 µM (inactive); in the assay on NCI-H226, 55.7 µM (inactive); in the assay with PC-3, 42.4 µM (inactive); in the assay on RPMI-8226 it was 26.4 µM (inactive); in the assay on RXF 393, 13.3 µM (inactive); in the assay on SF-268 it was > 100 µM (inactive). Besides, the GI50 is 89.7 µM (inactive) in the assay on SF-539 and 32.1 µM (inactive) with UO-31.
Turning to `CC(=O)Oc1cc(OC(C)=O)c2c(c1C)CC[C@@H]1[C@@H]2CC[C@]2(C)[C@@H](OC(C)=O)CC[C@@H]12`, the GI50 was 19.8 µM (inactive) with 786-0; 18.9 µM (inactive) in the assay with A498; 17.5 µM (inactive) in the assay on ACHN; 24.1 µM (inactive) in the assay on DU-145; 14.8 µM (inactive) with EKVX; 17.3 µM with HCT-15. For the same compound, the GI50 is 19.1 µM (inactive) in the assay on HL-60; 21.9 µM (inactive) in the assay with Hs-578T; 17.2 µM (inactive) in the assay with IGROV-1; 16.1 µM (inactive) in the assay on MDA-MB-231; 16.7 µM (inactive) with MDA-MB-435; 18.6 µM (inactive) with MDA-N. Further, the GI50 was 11.9 µM (inactive) with MOLT-4; 17.4 µM (inactive) in the assay on NCI-H226; 15.6 µM (inactive) in the assay with PC-3; 8.15 µM (inactive) in the assay on RPMI-8226; 13.1 µM (inactive) with RXF 393; 20.3 µM (inactive) with SF-268. Also, the GI50 in the assay with SF-539 is 16.1 µM (inactive); with UO-31, 17.5 µM (inactive).
With `O=c1[nH]c2nc[nH]c2c(=O)n1C1CCCCC1`, the GI50 with 786-0 is > 100 µM (inactive); with A498, > 100 µM (inactive); in the assay with ACHN, > 100 µM (inactive); in the assay on DU-145 it was > 100 µM (inactive); with EKVX it was > 100 µM (inactive); in the assay on HCT-15, greater than 100 µM. For the same compound, the GI50 in the assay with HL-60 was 6.01 µM (inactive); in the assay on Hs-578T it was > 100 µM (inactive); with IGROV-1, > 100 µM (inactive); in the assay on MDA-MB-231, > 100 µM (inactive); in the assay on MDA-MB-435 it was > 100 µM (inactive); in the assay with MDA-N it was > 100 µM (inactive). Also, the GI50 in the assay on MOLT-4, in the assay with NCI-H226, in the assay with PC-3, in the assay with RPMI-8226, in the assay on RXF 393 and in the assay on SF-268 was > 100 µM (inactive) in each case. Moreover, the GI50 in the assay on SF-539 and in the assay with UO-31 was > 100 µM (inactive) throughout.
Consider `O[C@@H]1[C@H](OC2c3ccccc3-c3ccccc32)[C@H](OCc2ccccc2)[C@@H]2OC[C@H]1O2`, for which the GI50 in the assay on 786-0 is 19.7 µM (inactive); with A498, > 100 µM (inactive); in the assay with ACHN, > 100 µM (inactive); in the assay with DU-145 it was > 100 µM (inactive); with EKVX, > 100 µM (inactive); with HCT-15, greater than 100 µM. Besides, the GI50 was > 100 µM (inactive) in the assay on HL-60; 43.4 µM (inactive) in the assay on Hs-578T; > 100 µM (inactive) in the assay with IGROV-1; 51.3 µM (inactive) in the assay with MDA-MB-231; > 100 µM (inactive) in the assay with MDA-MB-435; > 100 µM (inactive) with MDA-N. Further, the GI50 in the assay with MOLT-4 was 34.1 µM (inactive); in the assay on NCI-H226, > 100 µM (inactive); in the assay on PC-3, 63.2 µM (inactive); in the assay on RPMI-8226 it was 71.9 µM (inactive); in the assay on RXF 393 it was > 100 µM (inactive); in the assay with SF-268, 57.1 µM (inactive). The values for the GI50 in the assay on SF-539 and in the assay on UO-31 were 23 µM (inactive) and > 100 µM (inactive), respectively.
As to `CN(C)c1ccc(/C=C2\N=C(c3ccc([N+](=O)[O-])cc3)OC2=O)cc1`, the GI50 with 786-0 is 90.8 µM (inactive); in the assay on A498 it was > 100 µM (inactive); in the assay on ACHN, 47.6 µM (inactive); with DU-145 it was > 100 µM (inactive); with EKVX it was > 100 µM (inactive); with HCT-15, 20 µM. Besides, the GI50 with HL-60 was 41 µM (inactive); in the assay on Hs-578T, 40.5 µM (inactive); in the assay with IGROV-1, > 100 µM (inactive); in the assay with MDA-MB-231, 64.6 µM (inactive); with MDA-MB-435, 81.8 µM (inactive); with MDA-N, 78.9 µM (inactive). Besides, the GI50 in the assay on MOLT-4 was > 100 µM (inactive); with NCI-H226, > 100 µM (inactive); with PC-3 it was 56.2 µM (inactive); in the assay with RPMI-8226, 41.7 µM (inactive); in the assay on RXF 393 it was 21.5 µM (inactive); in the assay with SF-268, 71.6 µM (inactive). In the assay on SF-539, the GI50 is 74.5 µM (inactive).

For the origin of these results see ChEMBL document CHEMBL1201862, “PubChem BioAssay data set” (2004).
